In brackets after ≈: the same amount, converted by molar mass.
Tests used:
Hepatitis C virus [1] = assay: Antiviral activity against Hepatitis C virus Con1 genotype 1b infected in human HuH7 cells after 3 days by FRET assay in presence of 40% human serum; format: functional, organism-based, Hepacivirus hominis; conditions: isolate Con1, Huh-7, 72 h
[2] = target: RNA-directed RNA polymerase (Hepacivirus hominis, UniProt O39930, P495A); assay: Inhibition of HCV Con1 genotype 1b NS5B RNA dependent RNA polymerase P495A mutant-mediated incorporation of radiolabeled nucleotides by scintillation proximity assay; parameters: species or system Hepatitis C virus (isolate Con1)
[3] = Cytotoxicity against human HuH7 cells by Alamar blue assay; format: cell-based; conditions: Huh-7 cells
[4] = Inhibition of HCV Con1 genotype 1b recombinant wild-type NS5B polymerase-mediated incorporation of radiolabeled nucleotides by scintillation proximity assay; parameters: species or system Hepatitis C virus (isolate Con1)
Hepatitis C virus [5] = assay: Antiviral activity against Hepatitis C virus H77c genotype 1a infected in human HuH7 cells after 3 days by FRET assay; format: functional, organism-based, Hepacivirus hominis; conditions: genotype 1a H77, Huh-7, 72 h
Hepatitis C virus [6] = assay: Antiviral activity against Hepatitis C virus Con1 genotype 1b infected in human HuH7 cells after 3 days by FRET assay; format: functional, organism-based, Hepacivirus hominis; conditions: isolate Con1, Huh-7, 72 h
[7] = Permeability of the compound at pH 7.4 by PAMPA; format: physicochemical; conditions: read-out: permeability
Liver microsome [8] = conditions: rat, microsomes
Liver microsome [9] = conditions: human, microsomes
[10] = Solubility of the compound in amorphous form in phosphate buffer at pH 6.5; format: physicochemical
[11] = target: T1, Nuclear receptor subfamily 1 group I member 2 (Homo sapiens, UniProt O75469); assay: Transactivation of human PXR expressed in human HepG2 cells by luciferase reporter gene assay; format: cell-based
T1 sequence (O75469 whole entry): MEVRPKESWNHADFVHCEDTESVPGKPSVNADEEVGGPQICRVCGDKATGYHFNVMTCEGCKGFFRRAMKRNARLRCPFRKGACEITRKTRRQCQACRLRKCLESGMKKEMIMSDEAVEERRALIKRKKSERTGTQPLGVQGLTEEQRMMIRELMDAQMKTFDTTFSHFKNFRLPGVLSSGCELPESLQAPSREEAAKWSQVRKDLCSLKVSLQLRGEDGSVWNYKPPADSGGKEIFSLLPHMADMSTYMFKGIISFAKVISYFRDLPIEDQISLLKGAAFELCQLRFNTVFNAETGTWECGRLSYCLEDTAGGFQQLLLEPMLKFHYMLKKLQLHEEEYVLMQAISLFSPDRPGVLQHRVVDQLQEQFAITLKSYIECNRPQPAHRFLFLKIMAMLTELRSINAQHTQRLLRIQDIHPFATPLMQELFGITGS

PXR (NR1I2) = target: T2, PXR (NR1I2) (Homo sapiens, UniProt O75469); assay: Transactivation of human PXR expressed in human HepG2 cells by luciferase reporter gene assay relative to control; format: cell-based; conditions: HepG2 cells expressing human PXR, read-out: %max
T2 sequence (O75469 whole entry): T1 sequence (O75469 whole entry)

Chain of RNA-directed RNA polymerase (O39930 entry or part of it P495A): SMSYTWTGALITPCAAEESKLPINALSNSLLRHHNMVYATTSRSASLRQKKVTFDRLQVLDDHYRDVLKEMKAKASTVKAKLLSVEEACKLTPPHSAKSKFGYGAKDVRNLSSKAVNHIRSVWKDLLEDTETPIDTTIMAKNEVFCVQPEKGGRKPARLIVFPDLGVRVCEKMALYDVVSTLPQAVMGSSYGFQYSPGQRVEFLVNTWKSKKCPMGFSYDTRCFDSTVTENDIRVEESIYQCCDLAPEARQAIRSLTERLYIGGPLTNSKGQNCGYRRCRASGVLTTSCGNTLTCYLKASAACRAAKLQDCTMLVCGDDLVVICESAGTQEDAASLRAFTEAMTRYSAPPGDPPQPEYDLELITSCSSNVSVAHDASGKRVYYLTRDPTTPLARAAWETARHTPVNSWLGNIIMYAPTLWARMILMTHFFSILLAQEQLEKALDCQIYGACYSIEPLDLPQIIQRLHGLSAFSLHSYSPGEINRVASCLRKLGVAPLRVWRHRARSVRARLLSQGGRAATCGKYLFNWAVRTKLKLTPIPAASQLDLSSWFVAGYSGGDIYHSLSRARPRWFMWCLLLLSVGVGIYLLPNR

EC50 (Hepatitis C virus [1])	Papp [7]	Stability (Liver microsome [8])	Stability (Liver microsome [9])	solubility [10]	EC50 [11]	Emax (PXR (NR1I2))	EC20 ([11]; human, hepg2)	Structure (SMILES)	EC50 [2]	CC50 [3]	IC50 [4]	EC50 (Hepatitis C virus [5])	EC50 (Hepatitis C virus [6])
								O=C(O)c1ccc2c(C3CCCCC3)c3n(c2c1)CC(C(=O)N1CCOCC1)=Cc1ccccc1-3	3.4 µM	> 10 µM	0.106 µM	0.404 µM	0.359 µM
								CN(C)S(=O)(=O)NC(=O)c1ccc2c(C3CCCCC3)c3n(c2c1)CC(C(=O)N1CCOCC1)=Cc1ccccc1-3	1.1 µM	> 10 µM	0.052 µM	0.119 µM	0.148 µM
								COc1ccc2c(c1)C=C(C(=O)N1CCOCC1)Cn1c-2c(C2CCCCC2)c2ccc(C(=O)NS(=O)(=O)N(C)C)cc21	0.239 µM	> 10 µM	0.049 µM	0.061 µM	0.062 µM
								O=C(O)c1ccc2c(C3CCCCC3)c3n(c2c1)C[C@]1(C(=O)N2CCOCC2)C[C@@H]1c1ccccc1-3	0.89 µM	> 10 µM	0.093 µM	0.472 µM	0.336 µM
								CN(C)S(=O)(=O)NC(=O)c1ccc2c(C3CCCCC3)c3n(c2c1)C[C@]1(C(=O)N2CCOCC2)C[C@@H]1c1ccccc1-3	0.63 µM	> 10 µM	0.165 µM	0.259 µM	0.143 µM
0.089 µM	34 ×10⁻⁶ cm/s	100%	93%	18 µg/mL (≈ 27.2 µM)	> 50 µM			COc1ccc2c(c1)C1CC1(C(=O)N1CCN(C(C)=O)CC1)Cn1c-2c(C2CCCCC2)c2ccc(C(=O)NS(=O)(=O)N(C)C)cc21 (racemic)		> 10 µM		0.045 µM	0.098 µM
0.059 µM	43 ×10⁻⁶ cm/s	93%	64%	18 µg/mL (≈ 26.1 µM)	> 50 µM			COc1ccc2c(c1)C1CC1(C(=O)N1CCN(C(=O)N(C)C)CC1)Cn1c-2c(C2CCCCC2)c2ccc(C(=O)NS(=O)(=O)N(C)C)cc21 (racemic)		> 10 µM		0.023 µM	0.054 µM
0.039 µM		100%	100%		> 50 µM			COc1ccc2c(c1)C1CC1(C(=O)N1C3CC1CN(C)C3)Cn1c-2c(C2CCCCC2)c2ccc(C(=O)NS(=O)(=O)N(C)C)cc21 (racemic)		10 µM		0.004 µM	0.012 µM
0.098 µM							2.8 µM	COc1ccc2c(c1)C1CC1(C(=O)N1C[C@@H](C)O[C@@H](C)C1)Cn1c-2c(C2CCCCC2)c2ccc(C(=O)NS(=O)(=O)N(C)C)cc21 (mixture of isomers)		9 µM		0.012 µM	0.024 µM
0.114 µM					0.6 µM	144%		COc1ccc2c(c1)C1CC1(C(=O)N1CC3CCC(C1)O3)Cn1c-2c(C2CCCCC2)c2ccc(C(=O)NS(=O)(=O)N(C)C)cc21 (racemic)		> 10 µM		0.007 µM	0.031 µM
0.115 µM	47 ×10⁻⁶ cm/s	100%	100%		> 3 µM	32%		COc1ccc2c(c1)C1CC1(C(=O)N1CC(O)(C(F)(F)F)C1)Cn1c-2c(C2CCCCC2)c2ccc(C(=O)NS(=O)(=O)N(C)C)cc21 (racemic)		> 10 µM		0.015 µM	0.05 µM
0.065 µM	74 ×10⁻⁶ cm/s	100%	72%		> 50 µM	14%		COc1ccc2c(c1)C1CC1(C(=O)N1CC(O)(C(C)C)C1)Cn1c-2c(C2CCCCC2)c2ccc(C(=O)NS(=O)(=O)N(C)C)cc21 (racemic)		6.5 µM		< 0.014 µM	0.023 µM
0.068 µM	19 ×10⁻⁶ cm/s	100%	100%		> 50 µM	12%		COc1ccc2c(c1)C1CC1(C(=O)N1CC(O)(C3CC3)C1)Cn1c-2c(C2CCCCC2)c2ccc(C(=O)NS(=O)(=O)N(C)C)cc21 (racemic)		> 10 µM		< 0.014 µM	0.029 µM
	39 ×10⁻⁶ cm/s	100%	72%		> 50 µM	10%		COc1ccc2c(c1)C1CC1(C(=O)N1CC(O)(c3ccccc3)C1)Cn1c-2c(C2CCCCC2)c2ccc(C(=O)NS(=O)(=O)N(C)C)cc21 (racemic)		8 µM		0.068 µM	0.16 µM
		100%	87%		> 50 µM	3%		COc1ccc2c(c1)C1CC1(C(=O)N1CC(O)(c3ccc(F)cc3)C1)Cn1c-2c(C2CCCCC2)c2ccc(C(=O)NS(=O)(=O)N(C)C)cc21 (racemic)		7 µM		0.054 µM	0.22 µM
0.055 µM	14 ×10⁻⁶ cm/s	100%	91%	< 1 µg/mL	> 50 µM			COc1ccc2c(c1)C1CC1(C(=O)N1C[C@@H](C)N[C@@H](C)C1)Cn1c-2c(C2CCCCC2)c2ccc(C(=O)NS(=O)(=O)N(C)C)cc21 (mixture of isomers)		15 µM		0.021 µM	0.029 µM

Structure (SMILES)	EC50 (Hepatitis C virus [1])	Papp [7]	Stability (Liver microsome [8])	Stability (Liver microsome [9])	solubility [10]	EC50 [11]	Emax (PXR (NR1I2))	EC20 ([11]; human, hepg2)	EC50 [2]	CC50 [3]	IC50 [4]	EC50 (Hepatitis C virus [5])	EC50 (Hepatitis C virus [6])
CN(C)S(=O)(=O)NC(=O)c1ccc2c(C3CCCCC3)c3n(c2c1)C[C@@]1(C(=O)N2CCOCC2)C[C@H]1c1ccccc1-3	0.218 µM								0.24 µM	> 10 µM	0.027 µM	0.026 µM	0.031 µM
COc1ccc2c(c1)C1CC1(C(=O)N1C3CCC1CNC3)Cn1c-2c(C2CCCCC2)c2ccc(C(=O)NS(=O)(=O)N(C)C)cc21 (racemic)		4 ×10⁻⁶ cm/s	100%	96%		9 µM	31%			> 10 µM		0.014 µM	0.032 µM
COc1ccc2c(c1)C1CC1(C(=O)N1CC3CCC(C1)N3)Cn1c-2c(C2CCCCC2)c2ccc(C(=O)NS(=O)(=O)N(C)C)cc21 (racemic)		0.2 ×10⁻⁶ cm/s	100%	100%		> 50 µM				> 10 µM		0.034 µM	0.089 µM
COc1ccc2c(c1)C1CC1(C(=O)N1C3CCC1CN(C)C3)Cn1c-2c(C2CCCCC2)c2ccc(C(=O)NS(=O)(=O)N(C)C)cc21 (racemic)	0.045 µM	77 ×10⁻⁶ cm/s	100%	90%	44 µg/mL (≈ 66.7 µM)		21%			> 10 µM		0.005 µM	0.013 µM
COc1ccc2c(c1)C1CC1(C(=O)N1CC3CCC(C1)N3C)Cn1c-2c(C2CCCCC2)c2ccc(C(=O)NS(=O)(=O)N(C)C)cc21 (racemic)	0.153 µM	21 ×10⁻⁶ cm/s	100%	100%	41 µg/mL (≈ 62.1 µM)	3 µM	29%			> 16 µM		0.016 µM	0.039 µM
CCN1CC2CCC(C1)N2C(=O)C12CC1c1cc(OC)ccc1-c1c(C3CCCCC3)c3ccc(C(=O)NS(=O)(=O)N(C)C)cc3n1C2 (racemic)	0.037 µM	41 ×10⁻⁶ cm/s	98%	98%		> 50 µM				> 10 µM		0.004 µM	0.022 µM

From ChEMBL document CHEMBL3124792, “Discovery and preclinical characterization of the cyclopropylindolobenzazepine BMS-791325, a potent allosteric inhibitor of the hepatitis C virus NS5B polymerase” (J Med Chem, 2014)
